Measured values from PubChem BioAssay AID2060898 (Molecular Pharmacology Branch, DTP, NCI, 2025).

Tested on: 616215-338-R-J1-PDC complex spheroid viability
Assay: Anticancer human tumor 616215-338-R-J1-PDC patient-derived colon adenocarcinoma cell line growth inhibition [RAS]
Details: for IC50: curve of first compound; for viability, T/C: stronger effect = lower value; active = viability on the fitted dose curve at most 10% of control; inactive = the rest
In short: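 Tumour cells grown as complex spheroids with HUVEC endothelial cells and mesenchymal stem cells, treated with RAS pathway inhibitor combinations. Each agent spans half-log steps from near clinical Cmax, or 10 microM where Cmax is unknown.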
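Also: spheroids exposed to agents for seven days before viability readout.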
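For viability, T/C in this document: 100% = DMSO vehicle control viability.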

CC1(C)CCC(Nc2ncc(C(F)(F)F)c(-c3c[nH]c4c(P(C)(C)=O)c(C#N)ccc34)n2)CN1 (stereo unspecified) + CCn1c(-c2cccnc2C(C)OC)c2c3cc(ccc31)N1CCOC(CC(NC(=O)C(C(C)C)N(C)C(=O)C3(F)CCN(C(=O)C#CC(C)(C)N(C)C)CC3)C(=O)N3CCCC(N3)C(=O)OCC(C)(C)C2)C1
0.0158 µM: IC50 (second compound 0.000949 µM)
0.0133 µM: IC50 (second compound 0.03 µM)
0.0153 µM: IC50 (second compound 0.003 µM)
0.0139 µM: IC50 (second compound 0.00949 µM)
0.00841 µM: IC50 (second compound 0.3 µM)
inactive: viability, T/C (second compound 0.000949 µM, first compound 0.000949 µM) 108% | viability, T/C (second compound 0.000949 µM, first compound 0.003 µM) 107% | viability, T/C (second compound 0.000949 µM, first compound 0.00949 µM) 62.8% | viability, T/C (second compound 0.000949 µM, first compound 0.03 µM) 34.2% | viability, T/C (second compound 0.000949 µM, first compound 0.0949 µM) 33.9% | viability, T/C (second compound 0.000949 µM, first compound 0.3 µM) 31.9% | viability, T/C (second compound 0.003 µM, first compound 0.000949 µM) 107% | viability, T/C (second compound 0.003 µM, first compound 0.003 µM) 111% | viability, T/C (second compound 0.003 µM, first compound 0.00949 µM) 60.2% | viability, T/C (second compound 0.003 µM, first compound 0.03 µM) 39.3% | viability, T/C (second compound 0.003 µM, first compound 0.0949 µM) 32.2% | viability, T/C (second compound 0.003 µM, first compound 0.3 µM) 35.2% | viability, T/C (second compound 0.00949 µM, first compound 0.000949 µM) 113% | viability, T/C (second compound 0.00949 µM, first compound 0.003 µM) 103% | viability, T/C (second compound 0.00949 µM, first compound 0.00949 µM) 57% | viability, T/C (second compound 0.00949 µM, first compound 0.03 µM) 35.7% | viability, T/C (second compound 0.00949 µM, first compound 0.0949 µM) 32.9% | viability, T/C (second compound 0.00949 µM, first compound 0.3 µM) 36.5% | viability, T/C (second compound 0.03 µM, first compound 0.000949 µM) 115% | viability, T/C (second compound 0.03 µM, first compound 0.003 µM) 117% | viability, T/C (second compound 0.03 µM, first compound 0.00949 µM) 57% | viability, T/C (second compound 0.03 µM, first compound 0.03 µM) 34.6% | viability, T/C (second compound 0.03 µM, first compound 0.0949 µM) 32.9% | viability, T/C (second compound 0.03 µM, first compound 0.3 µM) 32.4% | viability, T/C (second compound 0.0949 µM, first compound 0.000949 µM) 119% | viability, T/C (second compound 0.0949 µM, first compound 0.003 µM) 93% | viability, T/C (second compound 0.0949 µM, first compound 0.00949 µM) 50.3% | viability, T/C (second compound 0.0949 µM, first compound 0.03 µM) 27.6% | viability, T/C (second compound 0.0949 µM, first compound 0.0949 µM) 31.2% | viability, T/C (second compound 0.0949 µM, first compound 0.3 µM) 27.1% | viability, T/C (second compound 0.3 µM, first compound 0.000949 µM) 95.1% | viability, T/C (second compound 0.3 µM, first compound 0.003 µM) 95.3% | viability, T/C (second compound 0.3 µM, first compound 0.00949 µM) 44.8% | viability, T/C (second compound 0.3 µM, first compound 0.03 µM) 28.8% | viability, T/C (second compound 0.3 µM, first compound 0.0949 µM) 28.4% | viability, T/C (second compound 0.3 µM, first compound 0.3 µM) 34.6%
0.00925 µM: IC50 (second compound 0.0949 µM)

CC(C)n1nc(-c2ccc3oc(N)nc3c2)c2c(N)ncnc21 + CCn1c(-c2cccnc2C(C)OC)c2c3cc(ccc31)N1CCOC(CC(NC(=O)C(C(C)C)N(C)C(=O)C3(F)CCN(C(=O)C#CC(C)(C)N(C)C)CC3)C(=O)N3CCCC(N3)C(=O)OCC(C)(C)C2)C1
inactive: viability, T/C (second compound 0.000949 µM, first compound 0.000316 µM) 95.6% | viability, T/C (second compound 0.000949 µM, first compound 0.001 µM) 97.1% | viability, T/C (second compound 0.000949 µM, first compound 0.00316 µM) 108% | viability, T/C (second compound 0.000949 µM, first compound 0.01 µM) 96.9% | viability, T/C (second compound 0.000949 µM, first compound 0.0316 µM) 112% | viability, T/C (second compound 0.000949 µM, first compound 0.1 µM) 72.2% | viability, T/C (second compound 0.003 µM, first compound 0.000316 µM) 102% | viability, T/C (second compound 0.003 µM, first compound 0.001 µM) 98.9% | viability, T/C (second compound 0.003 µM, first compound 0.00316 µM) 97.8% | viability, T/C (second compound 0.003 µM, first compound 0.01 µM) 105% | viability, T/C (second compound 0.003 µM, first compound 0.0316 µM) 116% | viability, T/C (second compound 0.003 µM, first compound 0.1 µM) 74.1% | viability, T/C (second compound 0.00949 µM, first compound 0.000316 µM) 100% | viability, T/C (second compound 0.00949 µM, first compound 0.001 µM) 90.7% | viability, T/C (second compound 0.00949 µM, first compound 0.00316 µM) 101% | viability, T/C (second compound 0.00949 µM, first compound 0.01 µM) 111% | viability, T/C (second compound 0.00949 µM, first compound 0.0316 µM) 111% | viability, T/C (second compound 0.00949 µM, first compound 0.1 µM) 66.6% | viability, T/C (second compound 0.03 µM, first compound 0.000316 µM) 95.5% | viability, T/C (second compound 0.03 µM, first compound 0.001 µM) 96.1% | viability, T/C (second compound 0.03 µM, first compound 0.00316 µM) 115% | viability, T/C (second compound 0.03 µM, first compound 0.01 µM) 106% | viability, T/C (second compound 0.03 µM, first compound 0.0316 µM) 102% | viability, T/C (second compound 0.03 µM, first compound 0.1 µM) 64.1% | viability, T/C (second compound 0.0949 µM, first compound 0.000316 µM) 109% | viability, T/C (second compound 0.0949 µM, first compound 0.001 µM) 109% | viability, T/C (second compound 0.0949 µM, first compound 0.00316 µM) 113% | viability, T/C (second compound 0.0949 µM, first compound 0.01 µM) 110% | viability, T/C (second compound 0.0949 µM, first compound 0.0316 µM) 108% | viability, T/C (second compound 0.0949 µM, first compound 0.1 µM) 55.8% | viability, T/C (second compound 0.3 µM, first compound 0.000316 µM) 106% | viability, T/C (second compound 0.3 µM, first compound 0.001 µM) 106% | viability, T/C (second compound 0.3 µM, first compound 0.00316 µM) 103% | viability, T/C (second compound 0.3 µM, first compound 0.01 µM) 82.1% | viability, T/C (second compound 0.3 µM, first compound 0.0316 µM) 71.8% | viability, T/C (second compound 0.3 µM, first compound 0.1 µM) 38.9%
0.0662 µM: IC50 (second compound 0.3 µM)
> 0.1 µM: IC50 (second compound 0.000949 µM) | IC50 (second compound 0.003 µM) | IC50 (second compound 0.00949 µM) | IC50 (second compound 0.03 µM) | IC50 (second compound 0.0949 µM)

CC1(O)CCCC1n1c(=O)c(C(F)F)cc2cnc(NC3CCN(S(C)(=O)=O)CC3)nc21 (stereo unspecified) + C#Cc1c(F)ccc2cc(O)cc(-c3ncc4c(N5CC6CCC(C5)N6)nc(OCC56CCCN5CC(F)C6)nc4c3F)c12
0.255 µM: IC50 (second compound 1 µM)
1.07 µM: IC50 (second compound 0.0316 µM)
inactive: viability, T/C (second compound 0.0316 µM, first compound 0.0316 µM) 110% | viability, T/C (second compound 0.0316 µM, first compound 0.1 µM) 114% | viability, T/C (second compound 0.0316 µM, first compound 0.316 µM) 53.5% | viability, T/C (second compound 0.0316 µM, first compound 1 µM) 49.1% | viability, T/C (second compound 0.0316 µM, first compound 3.16 µM) 45.4% | viability, T/C (second compound 0.1 µM, first compound 0.0316 µM) 107% | viability, T/C (second compound 0.1 µM, first compound 0.1 µM) 118% | viability, T/C (second compound 0.1 µM, first compound 0.316 µM) 50.2% | viability, T/C (second compound 0.1 µM, first compound 1 µM) 46.8% | viability, T/C (second compound 0.1 µM, first compound 3.16 µM) 39.4% | viability, T/C (second compound 0.316 µM, first compound 0.0316 µM) 117% | viability, T/C (second compound 0.316 µM, first compound 0.1 µM) 112% | viability, T/C (second compound 0.316 µM, first compound 0.316 µM) 54.5% | viability, T/C (second compound 0.316 µM, first compound 1 µM) 44% | viability, T/C (second compound 0.316 µM, first compound 3.16 µM) 37.9% | viability, T/C (second compound 1 µM, first compound 0.0316 µM) 111% | viability, T/C (second compound 1 µM, first compound 0.1 µM) 94.2% | viability, T/C (second compound 1 µM, first compound 0.316 µM) 38.8% | viability, T/C (second compound 1 µM, first compound 1 µM) 45.9% | viability, T/C (second compound 1 µM, first compound 3.16 µM) 50.5% | viability, T/C (second compound 1 µM, first compound 10 µM) 0.81% | viability, T/C (second compound 3.16 µM, first compound 0.0316 µM) 90.4% | viability, T/C (second compound 3.16 µM, first compound 0.1 µM) 49.9% | viability, T/C (second compound 3.16 µM, first compound 0.316 µM) 29.8% | viability, T/C (second compound 3.16 µM, first compound 1 µM) 35.8% | viability, T/C (second compound 3.16 µM, first compound 3.16 µM) 31.4% | viability, T/C (second compound 3.16 µM, first compound 10 µM) 2.44% | viability, T/C (second compound 10 µM, first compound 0.0316 µM) 59.5% | viability, T/C (second compound 10 µM, first compound 0.1 µM) 23.7% | viability, T/C (second compound 10 µM, first compound 0.316 µM) 26.1% | viability, T/C (second compound 10 µM, first compound 1 µM) 22.2% | viability, T/C (second compound 10 µM, first compound 3.16 µM) 21.8% | viability, T/C (second compound 10 µM, first compound 10 µM) 1.18%
active: viability, T/C (second compound 0.0316 µM, first compound 10 µM) 1.06% | viability, T/C (second compound 0.1 µM, first compound 10 µM) 0.75% | viability, T/C (second compound 0.316 µM, first compound 10 µM) 2.34%
0.132 µM: IC50 (second compound 3.16 µM)
0.924 µM: IC50 (second compound 0.1 µM)
0.833 µM: IC50 (second compound 0.316 µM)
0.044 µM: IC50 (second compound 10 µM)
